Data taken from the NIST ThermoML archive (doi:10.1021/je049814b).

Experiment: wn = mass fraction of the nth substance listed
Conditions: Liquid, Coaxial cylinder method

[Br-].[K+] [potassium bromide] + O
thermal conductivity [W/m/K]
Conditions | 100 kPa | 2000 kPa | 10000 kPa | 40000 kPa
294.7 K, w1 = 0.1 | 0.578 | 0.578 | 0.582 | 0.592
295.7 K, w1 = 0.3 | 0.521 | 0.521 | 0.525 | 0.532
296.8 K, w1 = 0.2 | 0.553 | 0.553 | 0.557 | 0.565
320.9 K, w1 = 0.1 | 0.612 | 0.612 | 0.617 | 0.628
321.4 K, w1 = 0.3 | 0.554 | 0.554 | 0.559 | 0.569
325.4 K, w1 = 0.2 | 0.589 | 0.589 | 0.595 | 0.602
351.2 K, w1 = 0.2 | 0.616 | 0.616 | 0.62 | 0.629
354.8 K, w1 = 0.1 | 0.644 | 0.644 | 0.65 | 0.662
357.6 K, w1 = 0.3 | 0.588 | 0.588 | 0.591 | 0.601
381.3 K, w1 = 0.1 | 0.661 | 0.661 | 0.669 | 0.682
384.2 K, w1 = 0.3 | 0.601 | 0.601 | 0.605 | 0.616
387.6 K, w1 = 0.2 | 0.634 | 0.634 | 0.638 | 0.647
403.2 K, w1 = 0.1 | 0.661 | 0.661 | 0.667 | 0.683
406.2 K, w1 = 0.2 | 0.632 | 0.632 | 0.638 | 0.648
409.6 K, w1 = 0.3 | 0.6 | 0.6 | 0.606 | 0.618
425.9 K, w1 = 0.1 | 0.657 | 0.657 | 0.662 | 0.681
427.2 K, w1 = 0.3 | 0.598 | 0.598 | 0.604 | 0.616
431.2 K, w1 = 0.2 | 0.628 | 0.628 | 0.634 | 0.646
456.9 K, w1 = 0.2 | 0.616 | 0.616 | 0.623 | 0.635
457.6 K, w1 = 0.1 | 0.643 | 0.643 | 0.65 | 0.665
463.1 K, w1 = 0.3 | 0.582 | 0.582 | 0.586 | 0.599
481.3 K, w1 = 0.2 | – | – | 0.609 | 0.623
488.2 K, w1 = 0.1 | – | – | 0.628 | 0.65
494.2 K, w1 = 0.3 | – | – | 0.564 | 0.579
516.3 K, w1 = 0.3 | – | – | 0.542 | 0.562
519.3 K, w1 = 0.1 | – | – | 0.598 | 0.622
520.6 K, w1 = 0.2 | – | – | 0.575 | 0.592
539.7 K, w1 = 0.3 | – | – | 0.511 | 0.538
543.2 K, w1 = 0.1 | – | – | 0.569 | 0.597
547.6 K, w1 = 0.2 | – | – | 0.539 | 0.564
571.3 K, w1 = 0.2 | – | – | 0.501 | 0.534
571.9 K, w1 = 0.1 | – | – | 0.522 | 0.55
575.6 K, w1 = 0.3 | – | – | 0.455 | 0.496

[Br-].[Na+] [sodium bromide] + O
thermal conductivity [W/m/K]
Conditions | 100 kPa | 2000 kPa | 10000 kPa | 40000 kPa
294.3 K, w1 = 0.1 | 0.58 | 0.58 | 0.586 | 0.596
294.7 K, w1 = 0.38 | 0.504 | 0.504 | 0.512 | 0.525
296 K, w1 = 0.2 | 0.56 | 0.56 | 0.565 | 0.575
297.2 K, w1 = 0.3 | 0.537 | 0.537 | 0.541 | 0.55
319.6 K, w1 = 0.38 | 0.531 | 0.531 | 0.536 | 0.549
319.9 K, w1 = 0.2 | 0.595 | 0.595 | 0.599 | 0.609
321.7 K, w1 = 0.1 | 0.618 | 0.618 | 0.624 | 0.635
323.9 K, w1 = 0.3 | 0.573 | 0.573 | 0.578 | 0.587
347.2 K, w1 = 0.38 | 0.56 | 0.56 | 0.565 | 0.578
350.2 K, w1 = 0.2 | 0.624 | 0.624 | 0.628 | 0.639
354.2 K, w1 = 0.1 | 0.648 | 0.648 | 0.653 | 0.664
357.7 K, w1 = 0.3 | 0.601 | 0.601 | 0.608 | 0.617
374.5 K, w1 = 0.38 | 0.58 | 0.58 | 0.589 | 0.603
377.9 K, w1 = 0.2 | 0.637 | 0.637 | 0.642 | 0.653
378.6 K, w1 = 0.1 | 0.659 | 0.659 | 0.663 | 0.674
380.2 K, w1 = 0.3 | 0.61 | 0.61 | 0.617 | 0.627
396.5 K, w1 = 0.2 | 0.643 | 0.643 | 0.648 | 0.659
398.7 K, w1 = 0.38 | 0.585 | 0.585 | 0.593 | 0.609
399.2 K, w1 = 0.1 | 0.664 | 0.664 | 0.669 | 0.679
401 K, w1 = 0.3 | 0.615 | 0.615 | 0.623 | 0.633
424.5 K, w1 = 0.38 | 0.585 | 0.585 | 0.593 | 0.609
426.4 K, w1 = 0.3 | 0.614 | 0.614 | 0.624 | 0.637
427.5 K, w1 = 0.1 | 0.664 | 0.664 | 0.671 | 0.682
429.2 K, w1 = 0.2 | 0.643 | 0.643 | 0.649 | 0.659
450.6 K, w1 = 0.2 | 0.632 | 0.632 | 0.638 | 0.652
453.7 K, w1 = 0.1 | 0.652 | 0.652 | 0.659 | 0.672
455 K, w1 = 0.3 | 0.6 | 0.6 | 0.608 | 0.621
456.7 K, w1 = 0.38 | 0.572 | 0.572 | 0.583 | 0.6
483.2 K, w1 = 0.2 | – | – | 0.618 | 0.634
483.2 K, w1 = 0.38 | – | – | 0.569 | 0.59
486.2 K, w1 = 0.1 | – | – | 0.639 | 0.66
515.3 K, w1 = 0.1 | – | – | 0.611 | 0.634
515.7 K, w1 = 0.38 | – | – | 0.535 | 0.565
519.4 K, w1 = 0.2 | – | – | 0.583 | 0.601
541.3 K, w1 = 0.38 | – | – | 0.504 | 0.539
542.7 K, w1 = 0.1 | – | – | 0.576 | 0.604
547.6 K, w1 = 0.2 | – | – | 0.546 | 0.571
576.2 K, w1 = 0.2 | – | – | 0.504 | 0.535
576.5 K, w1 = 0.38 | – | – | 0.454 | 0.494
577.3 K, w1 = 0.1 | – | – | 0.525 | 0.566
